Legend:
[1] = Plasma concentrations in rats after a single oral dose; type: in vivo; details: rodents (FIG. 9A: rats), aqueous formulation, oral gavage
Source text: (§1) FIGS. 9A and 9B are graphs depicting the plasma concentrations of several compounds, as a function of time and dose, in rats (FIG. 9A), and dogs (FIG. 9B) after a single oral dose. […] Blood was collected at the indicated time points, and analyzed for drug levels.

[2] = tested on: CHO-K1 cells lacking Trp-p8; assay: Matched CHO (Trp-p8-) murine tumor xenograft model (CHO-K1 cells lacking Trp-p8); type: in vivo, mice; details: 100 mg/kg, single oral dose
Protocol: Mice were injected subcutaneously with CHO-K1 cells lacking Trp-p8, resulting in the formation of solid tumors. The length (L; longest dimension) and width (W; dimension perpendicular to and in the same plane as length) of each tumor was measured with Vernier calipers, and the tumor volume was approximated by a formula for the volume of an ellipsoid: 0.52*L*W^2. When the average tumor volume reached approximately 50 mm^3, the mice were randomized into groups, and administered either a single dose of the compound as an aqueous formulation, or vehicle, by oral gavage. Tumors were then subsequently measured on the indicated days. The data is presented as mean tumor volumes±standard error of the mean.

LuCaP = LuCaP murine tumor xenograft model expressing Trp-p8; type: in vivo, mice; details: intraperitoneal injection, once a day for 5 days; slower-growing tumor
Protocol: The LuCaP tumor model was obtained from Robert L. Vassella, Ph.D., Professor of Urology in the University of Washington's School of Medicine. The length (L; longest dimension) and width (W; dimension perpendicular to and in the same plane as length) of each tumor was measured with Vernier calipers, and the tumor volume was approximated by a formula for the volume of an ellipsoid: 0.52*L*W^2. When the average tumor volume reached approximately 150 mm^3, the mice were administered the compound, as an aqueous formulation, by intraperitoneal injection, once a day for 5 days. Tumors were then subsequently measured on the indicated days. The data is presented as mean tumor volumes±standard error of the mean.
Human prostate cancer xenografts expressing Trp-p8 (LuCaP, from Dr. Robert Vessella's lab in University of Washington—as assessed by in situ hybridization, quantitative polymerase chain reaction, and immunohistochemistry using a protein specific rabbit polyclonal antibody, T-904), as well as cell lines engineered to express Trp-p8, including CHO (Chinese Hamster Ovary) and EL-4 (Mouse Thymoma) cell lines, were used to establish tumor models in mice. Trp-p8 expression in the transfectants was confirmed by western blots and immunofluorescence using a Trp-p8 specific antibody (GS 2.20) as well as by response to known agonists in a calcium influx functional assay. […]

[3] = Plasma concentrations in dogs after a single oral dose; type: in vivo; details: Beagle dogs (FIG. 9B), aqueous formulation, oral gavage
Source text: as §1

Parent CHO = assay: ATP viability assay with non-transfected (parent) CHO cells; type: cell-based, Chinese Hamster; details: Cricetulus griseus
Source text: (§2) Human Trp-p8 transfected CHO cells (referred to herein as CHO/Trp-p8) were generated for use in experiments of the present invention. Expression of Trp-p8 polypeptide in this transfectant and the absence of any endogenous expression in the non-transfected CHO was confirmed by western blot and immunofluorescence using a Trp-p8 specific antibody (GS2.20) as well as the calcium flux assay with Icilin (1-[2-hydroxyphenyl]-4-[3-nitrophenyl]-1,2,3,6-tetrahydropyrimidine-2-one) and menthol (2-isopropyl-5-methyl-cyclohexanol). Non-transfected CHO cells were used to establish the specificity of the effects of the compounds observed with CHO/Trp-p8.
(§3) As a primary screen for efficacy and specificity for agonists, both the non-transfected CHO and CHO/Trp-p8 cells were exposed to 1 or 10 μM of test compounds in 1% dimethylsulfoxide (DMSO) or 1% DMSO (control) in a 96-well black walled, black-bottomed, cell-culture treated plate. DMSO was the solvent for all of the compounds tested. After 24-26 hours at 37° C., the cells were lysed and ATP concentration determined via a chemiluminescence assay using a commercially available reagent kit—Cell Titer-Glo (Promega; Madison, Wis.). […] (EC50 is defined herein as the agonist concentration at which there is a 50% reduction in relative cell viability).

Trp-p8 = molecular target: T1, Trp-p8 (Homo sapiens, UniProt Q7Z2W7, T58I); assay: ATP viability assay with CHO/Trp-p8 cells at 37° C.; type: cell-based; details: ATP viability assay
T1 construct: expressed in transfected cells; host or cells: CHO (Chinese Hamster Ovary) cells
T1 sequence (Q7Z2W7 whole entry T58I): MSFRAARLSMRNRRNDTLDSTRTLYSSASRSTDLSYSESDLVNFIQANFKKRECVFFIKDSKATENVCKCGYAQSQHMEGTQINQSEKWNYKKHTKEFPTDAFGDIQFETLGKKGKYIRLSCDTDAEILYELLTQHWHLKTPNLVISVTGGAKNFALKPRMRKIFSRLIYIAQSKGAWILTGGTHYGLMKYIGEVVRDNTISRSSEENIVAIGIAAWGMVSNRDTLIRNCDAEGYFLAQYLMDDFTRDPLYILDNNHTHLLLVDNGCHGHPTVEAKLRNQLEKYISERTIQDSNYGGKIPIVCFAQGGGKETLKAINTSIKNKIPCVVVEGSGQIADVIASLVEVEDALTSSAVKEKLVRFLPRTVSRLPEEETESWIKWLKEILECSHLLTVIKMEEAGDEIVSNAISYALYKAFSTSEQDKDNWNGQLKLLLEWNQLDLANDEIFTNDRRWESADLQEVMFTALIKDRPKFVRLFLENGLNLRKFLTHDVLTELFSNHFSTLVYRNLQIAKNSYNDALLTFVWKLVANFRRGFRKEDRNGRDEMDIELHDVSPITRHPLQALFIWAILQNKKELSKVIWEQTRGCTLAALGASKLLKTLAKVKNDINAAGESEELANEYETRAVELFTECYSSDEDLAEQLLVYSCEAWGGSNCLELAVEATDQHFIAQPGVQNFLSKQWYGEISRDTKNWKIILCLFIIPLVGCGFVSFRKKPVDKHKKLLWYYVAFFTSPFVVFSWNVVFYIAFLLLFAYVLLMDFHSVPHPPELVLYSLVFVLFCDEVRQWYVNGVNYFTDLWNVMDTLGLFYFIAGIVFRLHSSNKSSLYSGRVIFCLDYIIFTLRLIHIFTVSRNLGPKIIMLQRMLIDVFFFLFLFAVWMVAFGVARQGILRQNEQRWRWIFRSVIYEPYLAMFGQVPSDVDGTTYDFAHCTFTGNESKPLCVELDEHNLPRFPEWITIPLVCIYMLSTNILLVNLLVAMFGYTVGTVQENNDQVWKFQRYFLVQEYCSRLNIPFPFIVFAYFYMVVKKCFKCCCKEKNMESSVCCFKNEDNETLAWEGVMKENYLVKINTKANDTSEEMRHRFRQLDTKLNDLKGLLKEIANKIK
Source text: as §2
This Example discloses an ATP viability assay suitable for screening for effective Trp-p8 agonists. The ATP viability assay described herein employs CHO cells expressing an exogenous Trp-p8 cDNA. This example further establishes that Trp-p8 agonists of the present invention are effective in decreasing the viability of Trp-p8 expressing cells.
The concentration of intracellular ATP declines very rapidly when metabolically active cells undergo necrosis and/or apoptosis. The ATP concentration and consequently the relative cell viability can be measured by established methods using commercially available reagents. In the agonist screening methodology disclosed herein, a compound that specifically decreases the viability of CHO/Trp-p8 cells is referred to as an agonist.
as §3

CHO/Trp-p8 xenograft = assay: CHO/Trp-p8 murine tumor xenograft model; type: in vivo, mice
Protocol: FIGS. 6A-6B are graphs depicting results from an exemplary animal model suitable for testing and characterizing small-molecule Trp-p8 modulators of the present invention. Mice were injected subcutaneously with CHO/Trp-p8 cells, resulting in the formation of solid tumors. The length (longest dimension) and width (dimension perpendicular to and in the same plane as length) of each tumor was measured with Vernier calipers, and the tumor volume was approximated by a formula for the volume of an ellipsoid: 0.52*L*W^2. When the average tumor volume reached approximately 100 mm^3, the mice were randomized into groups. In FIG. 6A, the mice were administered a single dose of either a study compound as an aqueous formulation, or vehicle alone, by oral gavage. […] Tumors were then subsequently measured on the indicated days. […]
Mice were injected subcutaneously with CHO/Trp-p8 cells, resulting in the formation of solid tumors. The length (L; longest dimension) and width (W; dimension perpendicular to and in the same plane as length) of each tumor was measured with calipers, and the tumor volume was approximated by a formula for the volume of an ellipsoid: 0.52*L*W^2. […] Tumors were subsequently measured on the indicated days. […]
Mice were injected subcutaneously with CHO/Trp-p8 cells, resulting in the formation of solid tumors. […] Tumors were then subsequently measured on the indicated days. […]

[4] = Sustained plasma levels after oral dosing (half-life, species not stated); type: in vivo; details: oral administration, read-out: t½ (sustained plasma levels) (converted)
Source text: as §1

Compound: COc1ccc2c(c1)n(CCN)c(=O)n2C(=O)[C@@H]1C[C@H](C)CC[C@H]1C(C)C [Compound I]
- exposure after a single oral administration [1]: prolonged exposure
- efficacy in the matched CHO (Trp-p8-) model [2]: did not show significant efficacy
- effect of treatment on tumor growth, LuCaP model (LuCaP): statistically significant regression, as well as growth-inhibition
- exposure after a single oral administration [3]: prolonged exposure
- EC50 (Parent CHO): > 10000 nM
- times more potent than Compounds II, III, and IV (Trp-p8): approximately 3 times
- EC50 (Trp-p8; read-out: CHO/Trp-p8 EC50): 3 nM
- effect of treatment on tumor growth, CHO/Trp-p8 model (CHO/Trp-p8 xenograft; fast-growing tumor): attenuated growth, but did not cause regression
- efficacy in the CHO/Trp-p8 xenograft model (CHO/Trp-p8 xenograft; single oral dose of 10 mg/kg): significant efficacy
- half-life [4]: ~9 h
